From patent publication US20240316050A1 (OXFORD UNIVERSITY INNOVATION LIMITED, priority 2020, published 2024)
Entries after “also recorded” stand apart in the source; their conditions may differ. Structures can show the parent of a compound that is named as a salt.

Experiments:
[1] = test system: sEnd.1 murine endothelial cells; test: Intracellular BH4 and biopterins by HPLC in sEnd.1 cells; assay type: cell-based, mouse
Source text: Umbilical cords were collected at birth and human umbilical vein endothelial cells (HUVECs) were isolated and stored in liquid nitrogen according to standard operating procedures within a research tissue bank (Oxford Cardiovascular Tissue Bioresource; ethical approval 09/[…]/68, 07/[…]/148 and 11/SC/0230). For the purpose of the current study, HUVECs were identified from normotensive pregnancies and pregnancies complicated by preeclampsia, matched for maternal age and gestation. HUVECs and human uterine microvascular endothelial cells (HutMECs; Cat C-12295, Promocell) were cultured in EBM2 (endothelial basal medium) with bullet kit as recommended (Cat CC-3162, Lonza). All cell cultures were maintained in humidified 5% CO2 at 37° C. Primary HUVEC and HutMEC cells, obtained between passages 1-3 were and passages 4-6, respectively, were used for all experiments. sEnd.1 endothelial cells were grown in Dulbecco's modified Eagle's medium (Invitrogen) supplemented with glutamine (2 mmol/liter), penicillin (100 units/ml), and streptomycin (0.1 mg/ml). GCH1-specific, ON-TARGETplus SMARTpool siRNA was purchased from Dharmacon Thermo Scientific. […] The cells were cultured for 72 h, and gene silencing was detected by analysis of GTPCH protein expression by Western blotting using GTPCH-specific antibodies (a gift from S.Gross, Cornell University New York), in cells using standard protocols.

sEnd.1 cells = test: Superoxide and ROS production by DHE HPLC in sEnd.1 cells; assay type: cell-based, mouse; conditions: folic acid 10 μm, 16 h (FIG. 33)
Experimental: Measurement of 2-hydroxyethidium formation by HPLC was used to quantify superoxide production, as previously described. Briefly, the cells were washed three times in PBS and incubated in Krebs-Hepes buffer in the presence or absence of I-NAME (100 μm). After 30 min, dihydroethidium (25 μm) was added, and the cells were then incubated for an additional 20 min at 37° C. The cells were then harvested by scraping, centrifuged, and lysed in ice-cold methanol. Hydrochloric acid (100 mm) was added (1:1 v/v) prior to loading into the autosampler for analysis. All of the samples were stored in darkened tubes and protected from light at all times. Separation of ethidium, oxyethidium, and dihydroethidium was performed using a gradient HPLC system (Jasco) with an ODS3 reverse phase column (250 mm, 4.5 mm; Hichrom), and quantified using a fluorescence detector set at 510 nm (excitation) and 595 nm (emission). A linear gradient was applied from Mobile phase A (0.1% TFA (v/v)) to Mobile phase B (0.1% TFA (v/v) in acetonitrile) over 23 min (30% acetonitrile to 50% acetonitrile).

women with pre-eclampsia = conditions: folic acid supplementation, clinical trials; cited from earlier work
uterine arteries = test: Wire myography of isolated uterine arteries with inhibitors in the bath; set-up: species or system mouse
Source text: All drugs used were purchased from Sigma Chemical Company.

[2] = biological target: T1, endothelial nitric oxide synthase (eNOS) (Homo sapiens, UniProt P29474); test: NO synthesis by eNOS (14C arginine to citrulline conversion) in HUVECs; assay type: cell-based; conditions: HUVECs from NT and PE pregnancies; sepiapterin 1 μM
T1 construct: endogenous in cells; host or cells: primary HUVECs (passages 1-3) from normotensive and pre-eclamptic pregnancies
Source text: Umbilical cords were collected at birth and human umbilical vein endothelial cells (HUVECs) were isolated and stored in liquid nitrogen according to standard operating procedures within a research tissue bank (Oxford Cardiovascular Tissue Bioresource; ethical approval 09/H0606/68, 07/H0606/148 and 11/SC/0230). For the purpose of the current study, HUVECs were identified from normotensive pregnancies and pregnancies complicated by preeclampsia, matched for maternal age and gestation. […] All cell cultures were maintained in humidified 5% CO2 at 37° C.
NO synthesis by eNOS was assessed by conversion of ^14C L-arginine to citrulline, in the presence and absence of N-monomethyl-L-arginine (1 mM, Sigma), as described previously^9. Briefly, HUVES were incubated for 4 hours at 37° C. in 200 μl Krebs-HEPES buffer containing ^14C L-arginine (2 μl of 50 μCi/mL). Samples were run on a SCX 300 cation exchange HPLC column (Sigma) with online scintillation detection. Background signals were corrected from samples with ^14C L-arginine alone without cells.

HUVECs [3] = test: Intracellular BH4 and biopterins by HPLC in HUVECs; assay type: cell-based, human
Source text: Umbilical cords were collected at birth and human umbilical vein endothelial cells (HUVECs) were isolated and stored in liquid nitrogen according to standard operating procedures within a research tissue bank (Oxford Cardiovascular Tissue Bioresource; ethical approval 09/[…]/68, 07/[…]/148 and 11/SC/0230). For the purpose of the current study, HUVECs were identified from normotensive pregnancies and pregnancies complicated by preeclampsia, matched for maternal age and gestation. HUVECs and human uterine microvascular endothelial cells (HutMECs; Cat C-12295, Promocell) were cultured in EBM2 (endothelial basal medium) with bullet kit as recommended (Cat CC-3162, Lonza). All cell cultures were maintained in humidified 5% CO2 at 37° C. Primary HUVEC and HutMEC cells, obtained between passages 1-3 were and passages 4-6, respectively, were used for all experiments. sEnd.1 endothelial cells were grown in Dulbecco's modified Eagle's medium (Invitrogen) supplemented with glutamine (2 mmol/liter), penicillin (100 units/ml), and streptomycin (0.1 mg/ml).

HUVECs [4] = test: Matrigel endothelial tube formation, HUVECs from NT and PE pregnancies; assay type: cell-based, human; conditions: sepiapterin 1 μM
Source text: Umbilical cords were collected at birth and human umbilical vein endothelial cells (HUVECs) were isolated and stored in liquid nitrogen according to standard operating procedures within a research tissue bank (Oxford Cardiovascular Tissue Bioresource; ethical approval 09/H0606/68, 07/H0606/148 and 11/SC/0230). For the purpose of the current study, HUVECs were identified from normotensive pregnancies and pregnancies complicated by preeclampsia, matched for maternal age and gestation. HUVECs and human uterine microvascular endothelial cells (HutMECs; Cat C-12295, Promocell) were cultured in EBM2 (endothelial basal medium) with bullet kit as recommended (Cat CC-3162, Lonza). All cell cultures were maintained in humidified 5% CO2 at 37° C. […]
To assess tube formation ability of endothelial cells, a 96-well plate was evenly coated with 50 μl of growth factor-reduced Matrigel (BD Biosciences, UK). […] Images were saved as TIFF files, and tube formation analysed using AngioSys 1.0 (TCS Cell Works, UK). […] The total length of lines was quantified in pixels (then converted to micrometers) and total number of branch points was recorded.

[5] = test system: sEND.1 mouse endothelial cell line; test: Matrigel endothelial tube formation, sEND.1 cells with Gch1 siRNA; assay type: cell-based; conditions: sEND.1 treated with specific Gch1 siRNA; sepiapterin 1 μM
Experimental: (§1) To assess tube formation ability of endothelial cells, a 96-well plate was evenly coated with 50 μl of growth factor-reduced Matrigel (BD Biosciences, UK). Endothelial cells were plated at a density of 1×10^4 cells per well. The plate was incubated at 37° C. for 16 hours before photomicroscopy. Each sample was replicated in triplicate and the image of each well was taken at ×4 magnification using a Nikon Eclipse TE2000-U microscope (Nikon Ltd, London, UK). Images obtained from Matrigel assay were adjusted for mean brightness using acquisition software to control the bright field illumination of the microscope (Simple PCI version 6.6.0.0; Hamamatsu Corporation, Sewickley, PA). Images were saved as TIFF files, and tube formation analysed using AngioSys 1.0 (TCS Cell Works, UK). Image threshold was adjusted based on the intensity values of the monochrome image and each image then skeletonized to reduce to one pixel wide. […] The total length of lines was quantified in pixels (then converted to micrometers) and total number of branch points was recorded.
(§2) GCH1-specific, ON-TARGETplus SMARTpool siRNA was purchased from Dharmacon Thermo Scientific. […] The cells were cultured for 72 h, and gene silencing was detected by analysis of GTPCH protein expression by Western blotting using GTPCH-specific antibodies (a gift from S.Gross, Cornell University New York), in cells using standard protocols.

[6] = test system: human uterine microvascular endothelial cells (HutMECs); test: Matrigel endothelial tube formation, HutMECs with GCH1 siRNA; assay type: cell-based; conditions: HutMECs treated with GCH1 siRNA; sepiapterin 1 μM
Experimental: as §1, §2

[7] = Plasma and uterine artery biopterins by HPLC in treated pregnant mice; conditions: for systemic oxidation of BH4 to BH2: Gch1 deficient and control mice, oral supplementation
Experimental: After centrifugation at 13,200 rpm for 10 min at 4° C., supernatant was removed and ice-cold acid precipitation buffer (1 M phosphoric acid, 2 M trichloroacetic acid, 1 mM dithioerythritol) was added. Following centrifugation at 13,200 rpm for 10 min at 4° C., the supernatant was removed and injected onto the HPLC system.

people with PKU = conditions: most people with PKU; cited from earlier work
[8] = biological target: T2, endothelial nitric oxide synthase (eNOS) (Mus musculus, UniProt P70313); test: eNOS activity (14C arginine to 14C citrulline) in sEnd.1 cells; assay type: cell-based; conditions: 5MTHF 10 μm, 16 h (FIG. 34)
T2 construct: Conversion of 14C arginine to 14C citrulline was used as a measure of endothelial nitric oxide synthase activity (eNOS); endogenous in cells; host or cells: sEnd.1 murine endothelial cell line

Gch1^fl/flTie2cre mice = test: Systolic blood pressure by tail-cuff plethysmography in pregnant mice; conditions: oral 5-MTHF begun at day 10.5 or 16.5
Experimental: Female Gch1^fl/flTie2cre mice and their Gch1^fl/fl littermates (thereafter referred to as wild-type) were used for all experiments at 10 to 16 weeks.
Systolic blood pressure and heart rate was determined using a computerized tail-cuff system (Visitech, USA) in conscious mice^6. Experiments were performed between the hours of 8 and 12 am. The animal tails were passed through a cylindrical latex tail-cuff and taped down to reduce movement. Twenty readings were taken per mouse of which the first 5 readings were discarded. The remaining 15 readings were used to calculate the mean systolic blood pressure and heart rate in each mouse.

In the case of Nc1nc2ncc(CNc3ccc(C(=O)N[C@@H](CCC(=O)O)C(=O)O)cc3)nc2c(=O)[nH]1 [folic acid], the BH4 levels ([1]; sEnd.1 cells, folic acid 10 μm, 16 h at 37° C., with or without MTX 1 μm (FIG. 28)) is given as “no effect”, the “generation of reactive oxygen species (ROS)” value (sEnd.1 cells) is given as “increased” and the “clinical benefit in pre-eclampsia” value (women with pre-eclampsia) is given as “no benefit”.
In the case of COc1ccc2c(c1)c(CC(=O)O)c(C)n2C(=O)c1ccc(Cl)cc1 [indomethacin], the “endothelium-dependent vasodilation to ACh in the presence of inhibitors” value (uterine arteries; uterine arteries, pregnant or non-pregnant wild-type and Gch1^fl/flTie2cre mice, indomethacin 10 μM, apamin 50 nM, charybdotoxin 100 nM) is reported as “minimal effect”.
In the case of C[C@H](O)C(=O)C1=Nc2c(nc(N)[nH]c2=O)NC1 [sepiapterin], the eNOS activity [2] is reported as “normalized; also recorded: significantly increased”, the BH4 levels (HUVECs [3]; HUVECs from hypertensive/pre-eclamptic pregnancies, sepiapterin 1 μM) is reported as “normalized” and the “endothelial cell growth and tubule formation” value (HUVECs [4]) is reported as “restored; also recorded: rescued”. The “endothelial cell growth and tubule formation” value [5] was “fully restored; also recorded: rescued”, the BH4 levels ([1]; sEND.1 treated with specific Gch1 siRNA, sepiapterin 1 μM) was “increased” and the “endothelial cell growth and tubule formation” value [6] was “rescued”.
In the case of C[C@H](O)[C@H](O)[C@H]1CNc2nc(N)[nH]c(=O)c2N1 [BH4, tetrahydrobiopterin], the “systemic oxidation of BH4 to BH2” value [7] is reported as “rapidly oxidised”, the “BH4/BH2+B (total biopterins) ratio” value ([7]; pregnant mice, E18.5, oral BH4 200 mg/kg/day) is reported as “reduction” and the “plasma BH4 levels” value ([7]; pregnant mice, E18.5, oral in chow from 3 days before timed matings, BH4 200 mg/kg/day, 5-MTHF 15 mg/kg/day) is reported as “increased”.
For C[C@H](O)[C@H](O)[C@H]1CNc2nc(N)[nH]c(=O)c2N1 [sapropterin dihydrochloride], the “clinical benefit in PKU” value (people with PKU) is given as “little or no benefit”.
In the case of CN1c2c([nH]c(N)nc2=O)NC[C@@H]1CNc1ccc(C(=O)N[C@@H](CCC(=O)O)C(=O)O)cc1 [Arcofolin], the BH4 levels (HUVECs [3]; HUVECs from pregnancies with high blood pressure, 5MTHF 10 μm, 16 h at 37° C. (FIG. 36)) is reported as “increases”.
In the case of COC(=O)[C@@H](N)CCCNC(=N)N[N+](=O)[O-] [L-NAME], the “ACh vasorelaxations in the presence of L-NAME” value (uterine arteries; Gch1^fl/flTie2cre uterine arteries, L-NAME 100 μM) is reported as “did not significantly inhibit”, the “vasoconstriction response to U46619 in the presence of L-NAME” value (uterine arteries; uterine arteries of pregnant Gch1^fl/flTie2cre mice, L-NAME 100 μM) is reported as “unchanged” and the “vasoconstriction response to U46619 in the presence of L-NAME” value (uterine arteries; uterine arteries of pregnant wild-type mice, L-NAME 100 μM) is reported as “increased”. For the same compound, the “activity of endothelial nitric oxide synthase (L-arginine to L-citrulline conversion)” value [8] was “inhibited”.
With CN1c2c(nc(N)[nH]c2=O)NC[C@@H]1CNc1ccc(C(=O)N[C@@H](CCC(=O)O)C(=O)O)cc1 [5-MTHF, 5-methyltetrahydrofolate] the “systemic oxidation of BH4 to BH2” value [7] was “prevented” and the “time from initiation of treatment to reduction in blood pressure” value (Gch1^fl/flTie2cre mice) was no more than 2 days.
